Activity calls are given as the source filed them.
Experiments:
Prothrombin = Prothrombin (Homo sapiens, UniProt P00734); assay: Thrombin 1536 HTS Dose Response Confirmation. [Related pubchem assays: 1046 (Thrombin 1536 HTS; hits were confirmed in this assay)]; type: functional
[1] = target: T1, Calpain-2 catalytic subunit (Sus scrofa, UniProt P43367); assay: pig calpain II inhibitor potency, dose response, biochemical, fluorogenic peptide substrate (AID 1420); type: functional
T1 sequence (P43367 whole entry): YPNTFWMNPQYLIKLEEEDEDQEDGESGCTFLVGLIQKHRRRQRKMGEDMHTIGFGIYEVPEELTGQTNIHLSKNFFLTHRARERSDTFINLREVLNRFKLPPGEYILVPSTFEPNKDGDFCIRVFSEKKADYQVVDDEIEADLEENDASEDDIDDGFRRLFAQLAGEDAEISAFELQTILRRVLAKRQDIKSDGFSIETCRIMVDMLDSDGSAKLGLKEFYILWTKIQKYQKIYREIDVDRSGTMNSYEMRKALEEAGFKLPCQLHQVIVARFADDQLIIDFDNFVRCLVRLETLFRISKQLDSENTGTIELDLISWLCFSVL

Leucine aminopeptidase = target: T2, Leucine aminopeptidase (Plasmodium falciparum 3D7, UniProt Q8IL11); assay: P. falciparum M17LAP inhibitors, primary screen, biochemical, fluorogenic H-Leu-NHMec substrate, 1536-well (AID 1619); type: functional
T2 sequence (Q8IL11 whole entry): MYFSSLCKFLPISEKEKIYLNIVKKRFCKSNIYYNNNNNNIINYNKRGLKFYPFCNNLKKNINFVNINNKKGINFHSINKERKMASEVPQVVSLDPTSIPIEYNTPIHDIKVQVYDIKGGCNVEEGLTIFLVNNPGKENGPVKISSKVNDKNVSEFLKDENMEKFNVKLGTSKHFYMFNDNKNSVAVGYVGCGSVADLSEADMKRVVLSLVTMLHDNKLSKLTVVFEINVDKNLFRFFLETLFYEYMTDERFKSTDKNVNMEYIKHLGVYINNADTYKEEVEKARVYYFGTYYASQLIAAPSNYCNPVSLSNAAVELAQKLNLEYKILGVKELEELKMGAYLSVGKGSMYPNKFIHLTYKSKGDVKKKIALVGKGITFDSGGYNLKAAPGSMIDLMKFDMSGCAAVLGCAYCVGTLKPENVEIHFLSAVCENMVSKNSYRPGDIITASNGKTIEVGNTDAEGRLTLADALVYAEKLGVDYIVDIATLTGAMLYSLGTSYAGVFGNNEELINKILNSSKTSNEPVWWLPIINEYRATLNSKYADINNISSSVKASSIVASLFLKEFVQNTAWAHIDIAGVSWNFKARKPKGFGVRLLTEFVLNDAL

[2] = target: T3, Short transient receptor potential channel 4 (Mus musculus, UniProt Q9QUQ5); assay: mouse TRPC4 channel inhibitors, dose response, cell-based, HEK293 TRPC4/mu-opioid, Fluo-4 calcium (AID 434942); type: functional;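 also: potency of inhibitors blocking the TRPC4 calcium response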
T3 sequence (Q9QUQ5 whole entry): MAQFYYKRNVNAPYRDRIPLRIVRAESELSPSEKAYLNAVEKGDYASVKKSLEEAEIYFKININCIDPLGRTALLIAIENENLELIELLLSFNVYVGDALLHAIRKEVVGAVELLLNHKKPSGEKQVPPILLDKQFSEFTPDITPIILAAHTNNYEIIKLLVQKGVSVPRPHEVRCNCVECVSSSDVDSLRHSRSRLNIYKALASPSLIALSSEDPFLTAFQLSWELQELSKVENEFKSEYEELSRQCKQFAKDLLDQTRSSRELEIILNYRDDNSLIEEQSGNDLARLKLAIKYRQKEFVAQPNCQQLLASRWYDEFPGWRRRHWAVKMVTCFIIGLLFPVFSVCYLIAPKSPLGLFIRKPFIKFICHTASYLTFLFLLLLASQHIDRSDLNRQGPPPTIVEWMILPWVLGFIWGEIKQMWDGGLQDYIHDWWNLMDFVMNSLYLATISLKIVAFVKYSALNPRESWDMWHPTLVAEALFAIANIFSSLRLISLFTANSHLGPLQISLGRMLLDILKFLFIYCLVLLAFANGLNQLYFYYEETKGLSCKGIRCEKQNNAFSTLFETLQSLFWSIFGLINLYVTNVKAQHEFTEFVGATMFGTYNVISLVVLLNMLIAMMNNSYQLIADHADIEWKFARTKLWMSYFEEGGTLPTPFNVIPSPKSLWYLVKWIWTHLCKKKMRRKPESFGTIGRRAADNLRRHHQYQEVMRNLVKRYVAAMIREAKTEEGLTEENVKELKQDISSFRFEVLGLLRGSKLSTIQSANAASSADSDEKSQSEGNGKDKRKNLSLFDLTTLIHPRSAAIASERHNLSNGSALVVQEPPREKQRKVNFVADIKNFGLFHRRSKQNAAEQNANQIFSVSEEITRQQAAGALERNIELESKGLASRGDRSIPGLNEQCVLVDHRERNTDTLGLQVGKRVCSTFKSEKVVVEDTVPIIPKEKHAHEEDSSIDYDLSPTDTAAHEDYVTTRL

cells [3] = type: functional, cell-based
Large T antigen = Large T antigen (Simian virus 40, UniProt P03070); type: functional, Betapolyomavirus macacae;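 also: Confirmatory-stage PubChem screen for compounds that inhibit SV40 T antigen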
cells [4] = type: functional, cell-based; remark: listed apart in the source
[5] = target: Alkaline phosphatase, placental type (Homo sapiens, UniProt P05187); assay: PLAP enzyme inhibitors, confirmation, biochemical, luminescence (AID 1512); type: functional
HEK293 = assay: inhibitors of LMP1-driven NF-kB reporter, dose response, cell-based, HEK293, luciferase, cherry-pick (AID 588343); type: functional, Homo sapiens; details: Homo sapiens, HEK293
[6] = Luminescence Cell-Based Dose Response HTS to Identify Inhibitors of 5'UTR Stem-Loop Driven Prion Protein mRNA Translation in H4 Neuroglioblastoma Cells. [Related pubchem assays: 1827 (Project Summary), 1813 (Primary HTS)]; type: functional
[7] = inhibitors of SNCA 5'UTR-driven reporter translation, confirmation, H4 neuroglioma cells, luminescence (AID 1988); type: functional, cell-based
[8] = inhibitors of firefly luciferase expression or activity, dose response, H4 neuroglioma cells, luminescence (AID 1990); type: functional, cell-based
Paired box protein Pax-8 = Paired box protein Pax-8 (Homo sapiens, UniProt Q06710); assay: inhibitors of PAX8-driven TPO luciferase reporter, dose response, RMG-I cells, cherry-pick (AID 687027); type: functional, cell-based;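 also: luciferase reporter driven by Pax8 target thyroperoxidase promoter measured by SteadyGlo luminescence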
[9] = cytotoxicity in OVCAR8 ovarian cancer cells, dose response, PAX8 project, cell-based, plate reader, dry powder samples (AID 743197); type: functional; details: OVCAR-8
Cytochrome P450 1A2 = target: T4, Cytochrome P450 1A2 (Homo sapiens, UniProt P05177);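 also: PubChem cytochrome P450 panel assay, CYP1A2 panel member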
T4 sequence (P05177 whole entry): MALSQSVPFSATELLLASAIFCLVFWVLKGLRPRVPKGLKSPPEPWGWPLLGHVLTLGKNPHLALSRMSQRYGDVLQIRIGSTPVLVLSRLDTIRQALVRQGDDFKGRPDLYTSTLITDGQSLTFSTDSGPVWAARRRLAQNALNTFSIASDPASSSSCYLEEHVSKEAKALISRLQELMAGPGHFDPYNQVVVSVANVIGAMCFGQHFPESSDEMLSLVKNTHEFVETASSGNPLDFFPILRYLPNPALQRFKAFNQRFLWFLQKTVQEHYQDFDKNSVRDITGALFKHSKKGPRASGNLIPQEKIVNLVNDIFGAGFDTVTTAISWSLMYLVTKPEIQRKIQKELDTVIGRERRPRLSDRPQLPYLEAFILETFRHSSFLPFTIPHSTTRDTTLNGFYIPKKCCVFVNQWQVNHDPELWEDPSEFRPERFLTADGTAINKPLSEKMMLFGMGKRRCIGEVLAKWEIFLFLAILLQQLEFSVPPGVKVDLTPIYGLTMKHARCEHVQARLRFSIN

Cytochrome P450 2C9 = Cytochrome P450 2C9 (Homo sapiens, UniProt P11712)
Chain of Cytochrome P450 2C9 (P11712 whole entry): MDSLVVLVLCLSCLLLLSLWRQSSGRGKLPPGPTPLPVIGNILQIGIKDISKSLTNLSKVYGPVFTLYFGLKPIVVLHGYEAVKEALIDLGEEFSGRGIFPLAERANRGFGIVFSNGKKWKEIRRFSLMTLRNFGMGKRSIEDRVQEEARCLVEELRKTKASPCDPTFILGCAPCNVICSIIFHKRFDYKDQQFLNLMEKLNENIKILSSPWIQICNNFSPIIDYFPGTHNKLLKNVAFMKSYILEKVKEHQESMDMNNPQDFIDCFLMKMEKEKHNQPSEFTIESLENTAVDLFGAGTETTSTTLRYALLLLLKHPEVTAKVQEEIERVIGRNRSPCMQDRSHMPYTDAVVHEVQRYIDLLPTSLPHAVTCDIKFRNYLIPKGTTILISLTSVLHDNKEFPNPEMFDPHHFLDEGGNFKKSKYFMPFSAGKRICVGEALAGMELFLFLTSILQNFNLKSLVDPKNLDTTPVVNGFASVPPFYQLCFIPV

Chain of Paired box protein Pax-8 (Q06710 whole entry): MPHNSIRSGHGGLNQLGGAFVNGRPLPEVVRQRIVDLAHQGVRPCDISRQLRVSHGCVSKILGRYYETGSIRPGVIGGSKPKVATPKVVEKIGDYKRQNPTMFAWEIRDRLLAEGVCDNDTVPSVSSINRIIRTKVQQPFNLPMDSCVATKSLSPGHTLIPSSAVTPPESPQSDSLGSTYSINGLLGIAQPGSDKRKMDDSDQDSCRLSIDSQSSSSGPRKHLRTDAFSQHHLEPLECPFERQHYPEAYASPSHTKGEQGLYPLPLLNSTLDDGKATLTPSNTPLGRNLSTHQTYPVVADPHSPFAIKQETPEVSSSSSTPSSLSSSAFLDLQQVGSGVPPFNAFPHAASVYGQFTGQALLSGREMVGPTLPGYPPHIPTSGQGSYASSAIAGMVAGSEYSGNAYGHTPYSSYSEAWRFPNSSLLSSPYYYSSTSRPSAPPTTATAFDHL
Chain of Alkaline phosphatase, placental type (P05187 whole entry): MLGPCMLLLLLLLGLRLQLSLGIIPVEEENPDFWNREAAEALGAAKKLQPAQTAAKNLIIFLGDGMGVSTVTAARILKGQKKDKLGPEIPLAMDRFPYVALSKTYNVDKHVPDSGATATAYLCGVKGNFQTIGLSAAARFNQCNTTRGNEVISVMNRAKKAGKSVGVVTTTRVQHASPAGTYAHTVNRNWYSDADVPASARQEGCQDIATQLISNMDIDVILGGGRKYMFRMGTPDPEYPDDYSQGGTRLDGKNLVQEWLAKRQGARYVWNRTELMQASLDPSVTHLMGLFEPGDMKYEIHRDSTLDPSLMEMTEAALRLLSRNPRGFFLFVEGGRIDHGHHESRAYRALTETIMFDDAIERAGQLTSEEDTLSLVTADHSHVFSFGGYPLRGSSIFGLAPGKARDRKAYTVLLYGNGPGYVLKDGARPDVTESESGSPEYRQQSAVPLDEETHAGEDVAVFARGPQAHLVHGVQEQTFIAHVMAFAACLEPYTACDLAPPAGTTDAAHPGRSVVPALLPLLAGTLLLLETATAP
Chain of Large T antigen (P03070 whole entry): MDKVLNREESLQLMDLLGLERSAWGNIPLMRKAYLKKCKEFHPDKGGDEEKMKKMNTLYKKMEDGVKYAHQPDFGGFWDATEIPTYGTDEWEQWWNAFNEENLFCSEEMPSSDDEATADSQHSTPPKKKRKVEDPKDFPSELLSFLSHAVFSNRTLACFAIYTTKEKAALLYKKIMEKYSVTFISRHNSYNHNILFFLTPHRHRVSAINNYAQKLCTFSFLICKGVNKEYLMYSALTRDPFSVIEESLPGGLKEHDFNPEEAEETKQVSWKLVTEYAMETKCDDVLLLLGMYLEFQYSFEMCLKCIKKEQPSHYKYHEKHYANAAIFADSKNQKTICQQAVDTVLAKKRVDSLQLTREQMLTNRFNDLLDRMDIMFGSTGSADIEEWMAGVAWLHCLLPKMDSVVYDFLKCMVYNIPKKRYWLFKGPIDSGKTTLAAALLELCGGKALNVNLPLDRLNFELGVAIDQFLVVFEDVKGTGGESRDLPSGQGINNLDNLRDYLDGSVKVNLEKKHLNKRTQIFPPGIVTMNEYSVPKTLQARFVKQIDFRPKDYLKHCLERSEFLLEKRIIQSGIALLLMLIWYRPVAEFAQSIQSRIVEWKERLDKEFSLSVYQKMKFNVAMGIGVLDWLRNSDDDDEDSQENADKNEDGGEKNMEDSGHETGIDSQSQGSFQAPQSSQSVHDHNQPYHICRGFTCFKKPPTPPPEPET

In the case of COC(=O)c1ccc(NC2CC(=O)N(c3ccccc3C)C2=O)cc1 (stereo not given), the IC50 (Prothrombin) is reported as > 50 µM (not active).
For CC(=O)C(=NNc1ccc(-n2ccc(C(F)(F)F)n2)cc1)C(C)=O, the IC50 [1] was 2.57 µM (active).
In the case of Cc1ccc(C(=O)Nc2nc(=O)n(C(=O)C3CC3)s2)cc1, the IC50 (Leucine aminopeptidase) is reported as 19.3 µM (active).
In the case of Cc1ccc(Cn2ccc(NC(=O)C3C4CCC(C4)C3C(=O)O)n2)cc1 (stereo not given), the IC50 (Leucine aminopeptidase) is reported as 10.2 µM (active).
In the case of CC(C)(C)SCCNS(=O)(=O)c1ccc2ccccc2c1, the IC50 [1] is reported as > 50 µM (not active).
In the case of c1ccc(COC(CN2CCCCCC2)CN2CCCCCC2)cc1, the EC50 [2] is reported as 6.68 µM (active).
With CC(=O)n1nc(-c2cccc(C)c2)nc1SCC(=O)Nc1ccccc1 the IC50 (Prothrombin) was 0.731 µM (active).
With CS(=O)(=O)c1ccc(C(=O)N2CCc3ccccc3C2)cc1 the IC50 [1] was 0.514 µM (not active).
With Cc1cc(C)cc(Oc2nc(-c3ccccc3)cc(C)c2S(C)(=O)=O)c1 the IC50 [1] was 6.25 µM (not active).
With Cc1c(CCOC(=O)c2ccc([N+](=O)[O-])cc2)sc[n+]1CC(=O)c1ccccc1 the EC50 [2] was 5.96 µM (active).
For COc1ccccc1N1CCc2c(C)nc3c(OC)cccc3c21, the EC50 [2] was 4.73 µM (active).
For O=C(c1ccc(-c2ccc([N+](=O)[O-])cc2)o1)N1CCCCC1, the IC50 (Prothrombin) was > 50 µM (not active).
In the case of CCc1ccc(N2CC(C(=O)Nc3ccccc3F)CC2=O)cc1 (stereo not given), the IC50 (Prothrombin) is reported as > 50 µM (not active).
For CCOc1cc(N2CCOCC2)c(OCC)cc1NC(C)C(=O)N1CCC(C)CC1 (stereo not given), the EC50 (cells [3]) was > 350 µM (not active), the IC50 (Large T antigen) was 17.1 µM (active) and the EC50 (cells [4]) was > 350 µM (not active).
For CCOC(=O)CCP(=O)(O)C(O)c1ccc(OC)cc1 (stereo not given), the IC50 (Leucine aminopeptidase) was 8.59 µM (active).
For O=C(c1nc2ccccc2s1)N1CCN(c2ccccn2)CC1, the IC50 (Prothrombin) was > 50 µM (not active).
With CCCc1cc(=O)[nH]c(-n2nc3c(c2O)CCCC3)n1 the IC50 [5] was > 100 µM (inactive).
With OCC1(Cc2ccccc2)CCN(Cc2ccc(C(F)(F)F)cc2)CC1 the EC50 [2] was 2.11 µM (active).
In the case of COc1cc(OC)cc(C(=O)n2cnnc2N)c1, the IC50 (Prothrombin) is reported as 0.1 µM (active).
In the case of Cc1ccc(/C=C/c2nc3ccccc3s2)s1, the AC50 (HEK293) is reported as 4.16 µM (active), the EC50 [6] is reported as 10.7 µM (active) and the EC50 [7] is reported as 3.78 µM (active).
With O=C(O)c1cccc(NC(=S)NC(=O)c2ccc(-c3ccccc3)cc2)c1 the IC50 [1] was > 50 µM (not active).
With O=C(NC1(C(F)(F)F)Oc2cc(Cl)c(Cl)cc2O1)N1CCC2(CC1)OCCO2 the IC50 [5] was > 100 µM (inactive).
With CC(NCCC(Cc1ccccc1)c1ccco1)c1ccccc1 (stereo not given) the EC50 [2] was 1.68 µM (active).
In the case of O=C(Nc1ncccc1O)c1ccc(S(=O)(=O)NCc2ccco2)cc1, the AC50 (HEK293) is reported as 20.7 µM (active).
For CCc1cc(C(=O)N/N=C/c2ccc(O)cc2O)c2ccccc2n1, the EC50 [6] was 13.3 µM (active), the EC50 [7] was 7.63 µM (active) and the EC50 (cells [3]) was 9.29 µM (active). The EC50 [8] was 16.7 µM (active) and the EC50 (cells [4]) was > 350 µM (not active).
In the case of Cc1ccc(S(=O)(=O)N(C)C[C@@H]2OCCCC[C@H](C)Oc3ccc(NS(=O)(=O)c4ccc(F)cc4)cc3C(=O)N([C@H](C)CO)C[C@H]2C)cc1, the AC50 (Paired box protein Pax-8) is reported as 5.5 µM (active) and the AC50 [9] is reported as 55.9 µM (active).
With C[C@@H]1CN([C@H](C)CO)C(=O)c2c(c3ccccc3n2C)-c2ccccc2CO[C@H]1CN(C)C(=O)Nc1cccc(C(F)(F)F)c1 the AC50 (Paired box protein Pax-8) was 5.56 µM (active) and the AC50 [9] was > 70 µM (inactive).
In the case of C[C@@H]1CN([C@@H](C)CO)C(=O)c2c(c3ccccc3n2C)-c2ccccc2CO[C@H]1CN(C)S(=O)(=O)c1ccccc1F, the AC50 (Paired box protein Pax-8) is reported as 5.88 µM (active) and the AC50 [9] is reported as > 70 µM (inactive).
With COc1cccc(S(=O)(=O)N(C)C[C@@H]2Oc3cc(C4=CCCCC4)ccc3S(=O)(=O)N([C@@H](C)CO)C[C@H]2C)c1 the AC50 (Paired box protein Pax-8) was 14.5 µM (active) and the AC50 [9] was 49.6 µM (active).
For COc1cc(C(=O)Oc2ccccc2/C=N/NC(=O)c2ccc(C)cc2)cc(OC)c1OC, the AC50 (Cytochrome P450 1A2) was 2.24 µM (inconclusive), the AC50 (Cytochrome P450 2C9) was 0.316 µM (inconclusive) and the EC50 (cells [3]) was > 350 µM (not active). The EC50 (cells [4]) was > 350 µM (not active).
